Experimental findings from US20230113037A1 (Bayer Aktiengesellschaft, priority 2019, published 2023) are described below.

The target of assay [1] is T1, AHR (Mus musculus, UniProt P30561).
T1 sequence (P30561 1-848 P471L/N533S/M589L): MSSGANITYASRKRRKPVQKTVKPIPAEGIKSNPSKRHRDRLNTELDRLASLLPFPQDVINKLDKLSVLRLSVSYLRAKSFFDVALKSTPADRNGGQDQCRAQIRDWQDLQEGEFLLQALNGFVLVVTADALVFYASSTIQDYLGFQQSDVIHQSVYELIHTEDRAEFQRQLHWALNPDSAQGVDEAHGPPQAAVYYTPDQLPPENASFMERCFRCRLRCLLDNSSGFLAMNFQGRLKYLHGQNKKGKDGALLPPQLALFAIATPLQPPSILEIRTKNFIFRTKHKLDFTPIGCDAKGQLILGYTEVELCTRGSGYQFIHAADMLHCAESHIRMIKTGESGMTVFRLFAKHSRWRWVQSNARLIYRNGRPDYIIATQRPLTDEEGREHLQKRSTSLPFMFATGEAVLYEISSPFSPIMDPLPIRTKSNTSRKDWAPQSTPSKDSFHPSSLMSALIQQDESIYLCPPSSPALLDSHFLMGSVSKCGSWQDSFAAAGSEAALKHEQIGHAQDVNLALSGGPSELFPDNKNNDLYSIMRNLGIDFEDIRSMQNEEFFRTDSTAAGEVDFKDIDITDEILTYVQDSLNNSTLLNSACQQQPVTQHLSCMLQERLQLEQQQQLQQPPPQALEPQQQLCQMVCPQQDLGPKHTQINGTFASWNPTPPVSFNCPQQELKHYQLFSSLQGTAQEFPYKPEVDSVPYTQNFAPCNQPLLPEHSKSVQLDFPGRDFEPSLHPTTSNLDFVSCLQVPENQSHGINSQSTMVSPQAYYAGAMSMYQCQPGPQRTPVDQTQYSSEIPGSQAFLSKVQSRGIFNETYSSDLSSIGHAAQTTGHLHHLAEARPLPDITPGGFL
The assay can be described thus: In vitro assay 3: antagonism in mouse cell line (AHR transactivation, firefly luciferase reporter, kynurenic acid prestimulated). It counts as cell-based. The gist of the method: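 Luminescence from an AHR-dependent DRE-luciferase reporter, stably integrated in mouse cells, quantifies blockade of kynurenic acid-driven activation. Unstimulated cells mark maximal inhibition; normalization uses both control types, and multiply tested compounds carry mean or median values.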

The target in assay [2] is T2, AHR (Homo sapiens, UniProt P35869).
T2 construct: U87 MG glioblastoma cells (ATCC #HTB-14) endogenously expressing AHR; endogenous in cells; host or cells: U87 MG glioblastoma cells (ATCC #HTB-14)
T2 sequence (P35869 11-848): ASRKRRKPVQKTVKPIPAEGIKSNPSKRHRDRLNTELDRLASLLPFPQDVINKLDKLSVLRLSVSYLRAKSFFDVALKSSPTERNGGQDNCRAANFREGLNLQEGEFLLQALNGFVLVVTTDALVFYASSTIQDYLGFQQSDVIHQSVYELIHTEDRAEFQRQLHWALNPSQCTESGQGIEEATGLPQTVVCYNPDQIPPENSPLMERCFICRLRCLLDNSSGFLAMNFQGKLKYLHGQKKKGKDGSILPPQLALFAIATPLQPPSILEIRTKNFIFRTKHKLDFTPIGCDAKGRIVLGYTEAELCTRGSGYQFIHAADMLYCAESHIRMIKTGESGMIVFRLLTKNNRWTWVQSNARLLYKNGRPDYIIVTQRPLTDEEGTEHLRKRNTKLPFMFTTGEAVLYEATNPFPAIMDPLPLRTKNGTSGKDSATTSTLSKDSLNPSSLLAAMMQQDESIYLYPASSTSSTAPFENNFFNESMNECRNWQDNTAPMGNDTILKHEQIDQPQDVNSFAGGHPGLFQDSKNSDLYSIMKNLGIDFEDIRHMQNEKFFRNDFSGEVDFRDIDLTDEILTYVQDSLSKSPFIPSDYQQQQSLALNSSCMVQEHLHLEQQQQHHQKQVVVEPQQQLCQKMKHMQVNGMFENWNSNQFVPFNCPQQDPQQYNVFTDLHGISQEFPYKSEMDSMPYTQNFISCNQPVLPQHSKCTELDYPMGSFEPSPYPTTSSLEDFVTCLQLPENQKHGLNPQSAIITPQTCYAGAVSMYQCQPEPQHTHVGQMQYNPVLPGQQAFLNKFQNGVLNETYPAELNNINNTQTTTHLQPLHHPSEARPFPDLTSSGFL
Briefly: In vitro assay 1: antagonism in human cell line (AHR transactivation, firefly luciferase reporter, kynurenic acid prestimulated). The following applies: AHR Antagonism Human IC50 [M]. It counts as cell-based. The gist of the method:
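Antagonism is measured against kynurenic acid prestimulation in U87 MG glioblastoma cells carrying stable DRE-luciferase and Renilla reporters. Positive inhibition control: 150 μM kynurenic acid with 5 μM staurosporine. Values are normalized to controls; repeats are averaged or given as medians.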

The mark [3] stands for this setting: mouse Hepa 1c1c7 cells, 200 μM kynurenic acid, 20 hours, read-out: AHR Antagonism Mouse IC50.
Where [4] appears, read: Hepa 1c1c7 cells, 200 μM kynurenic acid, 20 hours, firefly luciferase reporter, read-out: AHR Antagonism Mouse IC50.

The structures appear in SMILES notation. Where two headings read alike, the source gives them in different places. A value given as a limit tells only on which side of the number the result lay.

As usually defined, the IC50 is the concentration at which inhibition is half-maximal.

Consider `Cc1ccccc1-c1nc2c3ccccc3nc(NC3CNCCNC3=O)n2n1` (single isomer, unassigned) [Example 47, 6-{[2-(2-methylphenyl)[1,2,4]triazolo[1,5-c]quinazolin-5-yl]amino}-1,4-diazepan-5-one], for which the IC50 in assay [1] (setting [3]) came out at 27.9 nM; in assay [2], 1.86e-08 M.
As to `COc1cccc(-c2nc3c4ccccc4nc(NC4CCNC4=O)n3n2)c1` (single isomer, unassigned) [Example 120, 3-{[2-(3-methoxyphenyl)[1,2,4]triazolo[1,5-c]quinazolin-5-yl]amino}pyrrolidin-2-one], the figures for the IC50 in assay [1] (setting [3]) and in assay [2] were 56.1 nM and 6.02e-08 M, respectively.
On the same counts, the results for `Cc1nnc(-c2nc3c4ccccc4nc(N[C@@H]4CCCCNC4=O)n3n2)o1` [Example 199, (3R)-3-{[2-(5-methyl-1,3,4-oxadiazol-2-yl)[1,2,4]triazolo[1,5-c]quinazolin-5-yl]amino}azepan-2-one] are 114 nM and 5.37e-07 M.
On the same counts, the results for `O=C1NCCNC[C@H]1Nc1nc2c(Br)cccc2c2nc(-c3cccc(F)c3)nn12` [Example 268, (6R)-6-{[7-bromo-2-(3-fluorophenyl)[1,2,4]triazolo[1,5-c]quinazolin-5-yl]amino}-1,4-diazepan-5-one] are 3.07 nM and 6.36e-09 M.
As to `O=C1NCCCC[C@H]1Nc1nc2c(C(F)(F)F)cccc2c2nc(-c3cnn(C(F)F)c3)nn12` [Example 736, (3R)-3-({2-[1-(difluoromethyl)-1H-pyrazol-4-yl]-7-(trifluoromethyl)[1,2,4]triazolo[1,5-c]quinazolin-5-yl}amino)azepan-2-one], the figures for the IC50 in assay [1] (setting [3]) and in assay [2] were 0.669 nM and 7.84e-10 M, respectively.
The matching figures for `Cn1cc(-c2nc3c4cccc(C(F)(F)F)c4nc(N[C@@H]4CCCCNC4=O)n3n2)cn1` [Example 583, (3R)-3-{[2-(1-methyl-1H-pyrazol-4-yl)-7-(trifluoromethyl)[1,2,4]triazolo[1,5-c]quinazolin-5-yl]amino}azepan-2-one]: 3.11 nM and 9.48e-10 M.
As for `O=C1NCCCC[C@@H]1Nc1nc2ccccc2c2nc(-c3ccsc3)nn12` [Example 341], the values for the 50% inhibitory concentration (IC50) in assay [1] (setting [3]) and in assay [2] were 17.7 nM and 1.18e-07 M, respectively.
On to `COc1cccc(-c2nc3c4cc(F)ccc4nc(NC4CCCNC4=O)n3n2)c1` (single isomer, unassigned) [Example 188, 3-{[9-fluoro-2-(3-methoxyphenyl)[1,2,4]triazolo[1,5-c]quinazolin-5-yl]amino}piperidin-2-one], for which the IC50 is 50.4 nM in assay [1] (setting [3]) and 3e-08 M in assay [2].
For `COc1ccc(-c2nc3c4cccc(Br)c4nc(N[C@H]4COCCNC4=O)n3n2)cc1` [Example 681, (6S)-6-{[7-bromo-2-(4-methoxyphenyl)[1,2,4]triazolo[1,5-c]quinazolin-5-yl]amino}-1,4-oxazepan-5-one], the IC50 in assay [1] (setting [3]) is 13.1 nM; in assay [2] it was 1.45e-08 M.
For `COc1ccc(-c2nc3c4cccc(S(C)(=N)=O)c4nc(N[C@@H]4CCCCNC4=O)n3n2)cc1` (mixture of isomers) [Example 853, (3R)-3-{[7-(S-methanesulfonimidoyl)-2-(4-methoxyphenyl)[1,2,4]triazolo[1,5-c]quinazolin-5-yl]amino}azepan-2-one], the IC50 in assay [1] (setting [4]) turned out to be 68.6 nM; in assay [2] (firefly luciferase reporter), 2.04e-09 M.
Turning to `O=C1NCCCC[C@@H]1Nc1nc2c(Br)cccc2c2nc(-c3ccc(Cl)cc3OC(F)F)nn12` [Example 576, (3S)-3-({7-bromo-2-[4-chloro-2-(difluoromethoxy)phenyl][1,2,4]triazolo[1,5-c]quinazolin-5-yl}amino)azepan-2-one], the IC50 in assay [1] (setting [3]) was found to be 2.96 nM; in assay [2], 1.77e-08 M.
As for `CCS(=O)(=O)c1cccc2c1nc(N[C@@H]1CNCCNC1=O)n1nc(-c3ccc(OC)cc3)nc21` [Example 940, (6R)-6-{[7-(ethanesulfonyl)-2-(4-methoxyphenyl)[1,2,4]triazolo[1,5-c]quinazolin-5-yl]amino}-1,4-diazepan-5-one], the IC50 is 57 nM in assay [1] (setting [4]) and 1.79e-08 M in assay [2] (firefly luciferase reporter).
In the case of `Cc1cc(-c2nc3c4ccccc4nc(N[C@@H]4CCCCNC4=O)n3n2)c(C)n1C` [Example 606, (3R)-3-{[2-(1,2,5-trimethyl-H-pyrrol-3-yl)[1,2,4]triazolo[1,5-c]quinazolin-5-yl]amino}azepan-2-one], the half-inhibitory concentration (IC50) in assay [1] (setting [3]) amounted to 3.08 nM; in assay [2], 9.02e-09 M.
On the same counts, the results for `N#Cc1cccc2c1nc(N[C@@H]1CCCCNC1=O)n1nc(-c3cnn(C(F)F)c3)nc21` [Example 764, 2-[1-(difluoromethyl)-1H-pyrazol-4-yl]-5-{[(3R)-2-oxoazepan-3-yl]amino}[1,2,4]triazolo[1,5-c]quinazoline-7-carbonitrile] are 1.73 nM and 1.86e-09 M.
In the case of `COc1ccc(-c2nc3c4ccccc4nc(N[C@H](C)C(=O)N4CCNCC4)n3n2)cc1` [Example 988, (2R)-2-{[2-(4-methoxyphenyl)[1,2,4]triazolo[1,5-c]quinazolin-5-yl]amino}-1-(piperazin-1-yl)propan-1-one-hydrogen chloride (1/1)], the results for the IC50 in assay [1] (setting [4]) and in assay [2] (firefly luciferase reporter) were 13.8 nM and 1.49e-08 M, respectively.
For the compound `Nc1ccc(-c2nc3c4ccccc4nc(N[C@@H]4CCCCNC4=O)n3n2)cn1` [Example 637, (3R)-3-{[2-(6-aminopyridin-3-yl)[1,2,4]triazolo[1,5-c]quinazolin-5-yl]amino}azepan-2-one], the IC50 was 21.4 nM in assay [1] (setting [3]) and 1.15e-08 M in assay [2].
`O=C1NCCNC[C@H]1Nc1nc2cccc(C(F)(F)F)c2c2nc(-c3cccc(F)c3)nn12` [Example 288, (6R)-6-{[2-(3-fluorophenyl)-10-(trifluoromethyl)[1,2,4]triazolo[1,5-c]quinazolin-5-yl]amino}-1,4-diazepan-5-one]: the IC50 in assay [1] (read-out: AHR Antagonism Mouse IC50, mouse Hepa 1c1c7 cells, 200 μM kynurenic acid, 20 hours) is 887 nM; in assay [2], > 2e-05 M.
As for `CCC[C@@H](Nc1nc2ccccc2c2nc(-c3cccc(OC(F)(F)F)c3)nn12)C(=O)NC` [Example 316, N-methyl-N^2-{2-[3-(trifluoromethoxy)phenyl][1,2,4]triazolo[1,5-c]quinazolin-5-yl}-D-norvalinamide], the values for the IC50 in assay [1] (setting [3]) and in assay [2] were 3.76 nM and 2.07e-08 M, respectively.
For `N#Cc1cccc2c1nc(N[C@@H]1CNCCNC1=O)n1nc(-c3cn[nH]c3)nc21` [Example 935, 5-{[(6R)-5-oxo-1,4-diazepan-6-yl]amino}-2-(1H-pyrazol-4-yl)[1,2,4]triazolo[1,5-c]quinazoline-7-carbonitrile], the figures for the half-maximal inhibitory concentration (IC50) in assay [1] (setting [4]) and in assay [2] (firefly luciferase reporter) were 1120 nM and 4.72e-06 M, respectively.
As for `CCn1cc(-c2nc3c4ccccc4nc(N[C@@H]4CCCCNC4=O)n3n2)c(C)n1` [Example 66, (3R)-3-{[2-(1-ethyl-3-methyl-1H-pyrazol-4-yl)[1,2,4]triazolo[1,5-c]quinazolin-5-yl]amino}azepan-2-one], the IC50 in assay [1] (setting [3]) was determined as 1.01 nM; in assay [2], 1.36e-09 M.
